According to PubChem BioAssay (NCI):
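Method: 48-hour compound exposure of cells in 96-well plates, five concentrations, linear interpolation of endpoints. TGI: concentration producing complete growth inhibition.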

How the values were obtained:
Experiment in all cases: NCI-60 cell line screen, 48 h
[1] = tested on: SN12C renal
[2] = tested on: UACC-62 melanoma
[3] = tested on: UACC-257 melanoma
[4] = tested on: KM12 colon
[5] = tested on: HCT-116 colon
[6] = tested on: 786-0 renal
[7] = tested on: SNB-75 CNS
[8] = tested on: ACHN renal
[9] = tested on: M19-MEL melanoma
[10] = tested on: HT29 colon
[11] = tested on: EKVX NSCLC
[12] = tested on: COLO 205 colon
[13] = tested on: SK-MEL-2 melanoma
[14] = tested on: TK-10 renal
[15] = tested on: HOP-92 NSCLC
[16] = tested on: LXFL 529 NSCLC
[17] = tested on: OVCAR-5 ovarian
[18] = tested on: K-562 leukemia
[19] = tested on: HL-60(TB) leukemia
[20] = tested on: SF-295 CNS
[21] = tested on: OVCAR-4 ovarian
[22] = tested on: SK-MEL-28 melanoma
[23] = tested on: SK-MEL-5 melanoma
[24] = tested on: A549 NSCLC
[25] = tested on: HCC-2998 colon
[26] = tested on: SF-539 CNS
[27] = tested on: SNB-19 CNS
[28] = tested on: A498 renal
[29] = tested on: RPMI-8226 leukemia
[30] = tested on: SK-OV-3 ovarian
[31] = tested on: KM20L2 colon
[32] = tested on: CCRF-CEM leukemia
[33] = tested on: MALME-3M melanoma
[34] = tested on: OVCAR-8 ovarian
[35] = tested on: NCI-H522 lung
[36] = tested on: IGROV1 ovarian
[37] = tested on: OVCAR-3 ovarian
[38] = tested on: NCI-H226 lung
[39] = tested on: UO-31 renal
[40] = tested on: XF 498 CNS
[41] = tested on: SNB-78 CNS
[42] = tested on: MOLT-4 leukemia
[43] = tested on: NCI-H23 lung
[44] = tested on: DMS 114 small cell lung
[45] = tested on: HOP-62 NSCLC
[46] = tested on: LOX IMVI melanoma
[47] = tested on: NCI-H460 lung
[48] = tested on: U251 CNS
[49] = tested on: SW-620 colon
[50] = tested on: DMS 273 small cell lung
[51] = tested on: M14 melanoma
[52] = tested on: DLD-1 colon
[53] = tested on: CAKI-1 renal
[54] = tested on: HCT-15 colon
[55] = tested on: SR leukemia
[56] = tested on: RXF 393 renal
[57] = tested on: SF-268 CNS

Measured: TGI

COc1ccc(C2C(Cl)C(=O)N2NC(=O)c2ccc(N)cc2)cc1 (stereo not given)
not listed: [55] | [56] | [57]
> 100 µM: all other assays above

COC(=O)c1cc(OC(C)=O)c2c(OC)ccc(OC)c2c1
not listed: [19] | [25] | [27] | [28] | [32] | [35] | [39] | [45] | [46] | [57]
> 100 µM: all other assays above

O=C1C2c3[nH]c4ccccc4c3C3CCCC3C2C(=O)N1c1ccccc1 (stereo not given)
not listed: [3] | [5] | [13] | [15] | [17] | [19] | [27] | [31] | [35] | [38] | [39] | [45] | [53]
> 100 µM: all other assays above
